Measurements reported in article PMC7932537, “Quantitative profiling of protease specificity” (PLoS Computational Biology, 2021).

System: MMP-2
Test: Substrate phage display with NGS: relative probability (RP) of P3-P1' tetramer clusters;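 on relative probability (RP): ratio of tetramer probability after protease selection to that in naive phage library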
Type: biochemical, human
Settings: for avg_RP: MMP2 - no binning
[1] = average relative probability of the tetramer, redundant tetramers averaged out
[2] = average relative probability of the P3-P1' tetramer, redundant tetramers have been averaged out
[3] = average relative probability (RP) of the P3-P1' tetramer, redundant tetramers have been averaged out

| Substance | avg_RP [1] | avg_RP [2] | further results |
| --- | --- | --- | --- |
| QLSL | 0.4979 | – | – |
| QMSL | – | 0.2763 | – |
| QQGL | 6.4014 | – | – |
| QQNL | – | 4.2466 | – |
| RIIG | – | – | relative probability (RP) (tetramer annotation of MMP-2 cleavage sites in physiologic substrates from MEROPS): 0.08 |
| RRNL | – | 6.1579 | – |
| SANL | 23.7816 | – | – |
| SARL | – | – | avg_RP [3]: 4.5839 |
| SASL | – | – | avg_RP [3]: 17.7881 |
| SAWL | – | 18.9346 | – |
| SAYL | – | – | avg_RP [3]: 11.6614 |
| SFAL | – | 0.5631 | – |
| SFNL | – | 1.0952 | – |
| SGAL | 13.4712 | – | – |
| SGAY | – | – | avg_RP [3]: 6.7841 |
| SGEL | – | 0.1149 | – |
| SGFL | – | 6.5712 | – |
| SGHL | 1.458 | – | – |
| SGML | – | 1.3118 | – |
| SGNL | – | 12.7361 | – |
| SGPL | – | 2.1571 | – |
| SGQL | – | 1.0305 | – |
| SGRL | – | 0.7262 | – |
| SGSL | – | 7.2251 | – |
| SHGL | 0.2009 | – | – |

| Substance | avg_RP [1] | avg_RP [2] | further results |
| --- | --- | --- | --- |
| SLAL | 6.0193 | – | – |
| SLAW | 18.2943 | – | – |
| SLNL | 3.3019 | – | – |
| SLPL | – | 8.6373 | – |
| SLRL | – | – | avg_RP [3]: 0 |
| SMNL | – | 2.1645 | – |
| SMRL | – | 0 | – |
| SMYL | – | – | avg_RP [3]: 1.2279 |
| SNWL | 9.68 | – | – |
| SQHL | – | – | avg_RP [3]: 0.2367 |
| SQSL | – | 5.003 | – |
| SRAL | 12.4506 | – | – |
| SRGL | 6.1644 | – | – |
| SWAW | – | 0.0563 | – |
| SWGL | 0.1389 | – | – |
| SWPL | – | – | avg_RP [3]: 0.4201 |
| SWSL | – | 0.0547 | – |
| SYAL | – | 4.7967 | – |
| SYNL | 6.0933 | – | – |
| SYPL | – | – | avg_RP [3]: 1.464 |
| SYWL | – | 0.9791 | – |
| TAWL | – | – | avg_RP [3]: 24.7743 |
| TFHL | 0.1298 | – | – |
| THHL | – | – | avg_RP [3]: 0.3701 |
| TLAL | 1.9537 | – | – |

| Substance | avg_RP [1] | avg_RP [2] | further results |
| --- | --- | --- | --- |
| TLHL | – | 2.4714 | – |
| TLNL | – | 2.7643 | – |
| TMAL | – | – | avg_RP [3]: 0.4939 |
| TMWL | – | – | avg_RP [3]: 5.1973 |
| TNWL | 15.348 | – | – |
| TQHL | – | 2.9223 | – |
| TQNL | 7.2378 | – | – |
| TRNL | – | 12.3403 | – |
| TRWL | 15.1455 | – | – |
| TRWY | 6.7229 | – | – |
| TWAL | – | 0.4366 | – |
| TWRL | – | – | avg_RP [3]: 0 |
| TWSM | – | – | avg_RP [3]: 0 |
| TYAL | – | 5.848 | – |
| VAAV | 19.031 | – | – |
| VAFL | – | – | avg_RP [3]: 20.6554 |
| VAKM | 17.3627 | – | – |
| VANW [P3-P1' tetramer cluster] | – | – | relative_probability (tetramer clusters unique to the MMP-2 selectome, MMP-2 RP): 29.92 |
| VAPL | – | 30.036 | – |
| VAWL | – | – | avg_RP [3]: 32.2185 |
| VAYL | 26.5348 | – | – |
| VDQL | – | – | avg_RP [3]: 0.0432 |
| VDYL | – | 1.426 | – |
| VEAL | 10.756 | – | – |
| VELL | – | 0 | – |

| Substance | avg_RP [1] | avg_RP [2] | further results |
| --- | --- | --- | --- |
| VEML | 2.1238 | – | – |
| VEPL | – | – | avg_RP [3]: 2.5219 |
| VEYL | – | 5.3014 | – |
| VFAL | – | 11.8827 | – |
| VFEL | 0.8652 | – | – |
| VFGL | – | 12.5523 | – |
| VFHM | – | 5.168 | – |
| VFNL | – | 14.497 | – |
| VFRL | – | – | avg_RP [3]: 1.3631 |
| VFSI | 0.2237 | – | – |
| VFSL | 9.6313 | – | – |
| VFSM | – | 2.2653 | – |
| VFWM | – | 10.3215 | – |
| VFWY | 6.3003 | – | – |
| VGAL | 32.8382 | – | – |
| VGHL | – | – | avg_RP [3]: 31.6783 |
| VGML | – | 28.5913 | – |
| VGVL | – | – | avg_RP [3]: 7.4169 |
| VHAL | – | – | avg_RP [3]: 19.753 |
| VHHL | 14.1228 | – | – |
| VHML | – | – | avg_RP [3]: 3.9806 |
| VHQM | – | 0 | – |
| VHRL | – | 1.5304 | – |
| VHSF | – | 0.0855 | – |
| VIAL | – | 8.0877 | – |

| Substance | avg_RP [1] | avg_RP [2] | further results |
| --- | --- | --- | --- |
| VKFL | – | – | avg_RP [3]: 9.5539 |
| VKGM | 15.5854 | – | – |
| VKHL | – | 14.8595 | – |
| VKWL | 19.0036 | – | – |
| VLAL | – | 13.5229 | – |
| VLFL | – | – | avg_RP [3]: 1.6486 |
| VLHL | – | 19.5348 | – |
| VLMM | – | 2.7364 | – |
| VLNL | 18.9065 | – | – |
| VLNM | – | 19.025 | – |
| VLPL | – | – | avg_RP [3]: 20.3086 |
| VLSL | 10.8506 | – | – |
| VLWL | – | 11.1539 | – |
| VMGI | 12.4242 | – | – |
| VMKL | – | – | avg_RP [3]: 0.3599 |
| VMLL | – | 0.4692 | – |
| VMLM | – | 0.5571 | – |
| VMNL | – | 18.6016 | – |
| VMNY | 12.7895 | – | – |
| VMRL | – | – | avg_RP [3]: 0.4281 |
| VMRM | – | 0.0611 | – |
| VMSL | – | 14.6983 | – |
| VMYL | – | – | avg_RP [3]: 5.0318 |
| VNFL | – | – | avg_RP [3]: 7.2989 |
| VNHL | 12.8499 | – | – |

| Substance | avg_RP [1] | avg_RP [2] | further results |
| --- | --- | --- | --- |
| VNLL | – | 0.5682 | – |
| VNNL | – | 17.6966 | – |
| VNRI | – | – | avg_RP [3]: 0 |
| VNSL | – | 13.3292 | – |
| VNWM | 16.277 | – | – |
| VNYL | – | 8.4267 | – |
| VQHL | 22.9738 | – | – |
| VQLL | – | 8.0197 | – |
| VRAH | 14.8064 | – | – |
| VRAI | 26.2338 | – | – |
| VRAL | 30.4312 | – | – |
| VRAV | 10.114 | – | – |
| VRDL | 21.7219 | – | – |
| VRFL | 15.0438 | – | – |
| VRFM | – | – | avg_RP [3]: 15.2846 |
| VRGL | 29.092 | – | – |
| VRGM | 26.4376 | – | – |
| VRGV | 2.6159 | – | – |
| VRHI | – | – | avg_RP [3]: 19.1429 |
| VRHL | 25.4239 | – | – |
| VRHV | 9.5401 | – | – |
| VRKL | 0 | – | – |
| VRLL | 4.002 | – | – |
| VRML | – | 15.9125 | – |
| VRMM | 13.0027 | – | – |

| Substance | avg_RP [1] | avg_RP [2] | further results |
| --- | --- | --- | --- |
| VRNL | – | – | avg_RP [3]: 29.2567 |
| VRNV | 5.0406 | – | – |
| VRNW | – | 17.7682 | – |
| VRQL | 16.7722 | – | – |
| VRSI | 11.7832 | – | – |
| VRSL | – | 12.3051 | – |
| VRWS | 8.0593 | – | – |
| VRWY | 17.3102 | – | – |
| VRYL | 18.3724 | – | – |
| VSEL | – | 24.0996 | – |
| VSFL | 5.9184 | – | – |
| VSYL | – | 20.2936 | – |
| VVWY | 9.9375 | – | – |
| VWAI | 3.2193 | – | – |
| VWAL | – | 12.7502 | – |
| VWGI | – | 3.0103 | – |
| VWGL | – | – | avg_RP [3]: 12.3495 |
| VWHI | 1.9312 | – | – |
| VWHL | – | – | avg_RP [3]: 10.1663 |
| VWHV | – | 0 | – |
| VWKL | – | – | avg_RP [3]: 0.2836 |
| VWLL | – | 0.5351 | – |
| VWML | 1.4023 | – | – |
| VWNI | – | 4.0144 | – |
| VWNL | 14.4124 | – | – |

| Substance | avg_RP [1] | avg_RP [2] | further results |
| --- | --- | --- | --- |
| VWNY | 4.6964 | – | – |
| VWPL | 5.2943 | – | – |
| VWRL | – | – | avg_RP [3]: 0.9525 |
| VWWQ | – | 0.2844 | – |
| VWYL | – | 3.6672 | – |
| VYAL | – | – | avg_RP [3]: 19.6906 |
| VYAW | – | 0.6193 | – |
| VYDL | – | 1.2439 | – |
| VYGL | 17.3788 | – | – |
| VYLL | 1.2276 | – | – |
| VYML | – | 5.0943 | – |
| VYNL | 19.1818 | – | – |
| VYRL | – | – | avg_RP [3]: 5.0832 |
| VYSL | – | 16.838 | – |
| VYWL | 16.4375 | – | – |
| VYWM | 12.492 | – | – |
| WAHI | 0.0575 | – | – |
| WAHL | – | 7.453 | – |
| WAPL | – | 23.9342 | – |
| WASI | 12.5247 | – | – |
| WASM | – | – | avg_RP [3]: 16.5169 |
| WESL | – | 0.6249 | – |
| WFAL | 0 | – | – |
| WFNL | 0 | – | – |
| WGNL | – | 14.7295 | – |
